In this assay the test system is Beet Armyworm (BAW) (Spodoptera exigua). In words: Bioassay on Beet Armyworm (BAW), 128-well diet tray assay. In kind it is in vivo. The settings on record: Table 3: Assay Results Part 1. As to the method:
Certain molecules disclosed in this document were tested against BAW, CEW and CL using procedures described in the following examples. In the reporting of the results, the “BAW & CEW & CL Rating Table” was used (See Table Section).
Bioassays on BAW (Spodoptera exigua)
Bioassays on BAW were conducted using a 128-well diet tray assay. One to five second instar BAW larvae were placed in each well (3 mL) of the diet tray that had been previously filled with 1 mL of artificial diet to which 50 μg/cm^2 of the test compound (dissolved in 50 μL of 90:10 acetone-water mixture) had been applied (to each of eight wells) and then allowed to dry. Trays were covered with a clear self-adhesive cover, and held at 25° C., 14:10 light-dark for five to seven days. Percent mortality was recorded for the larvae in each well; activity in the eight wells was then averaged. The results are indicated in the tables entitled “Table 3: Assay Results Part 1” and “Table 4: Assay Results Part 2” (See Table Section).

The structures appear in SMILES notation.

Take `O=C(NCc1ccc(/C=C/C(c2cc(Cl)c(F)c(Cl)c2)C(F)(F)F)cc1Cl)C1CC1` (centres unmarked) [CC15]: the “BAW Rating” value is recorded as “A (50-100)”. In the case of `O=C(NCc1ccc(/C=C/C(c2ccc(Cl)c(Cl)c2)C(F)(F)F)cc1Cl)C1CC1` (centres unmarked) [CC17] it was “A (50-100)”. For `O=C(CC(F)(F)F)NCc1ccc(/C=C/C(c2ccc(Cl)c(Cl)c2)C(F)(F)F)cc1Cl` (centres unmarked) [CC18], the “BAW Rating” value is given as “A (50-100)”.

For `CSCCC(=O)NCc1ccc(/C=C/C(c2cc(Cl)c(Cl)c(Cl)c2)C(F)(F)F)cc1Cl` (centres unmarked) [CC19], the “BAW Rating” value was “A (50-100)”. As for `FC(F)(F)C(/C=C/c1ccc(CNC(=S)C2CC2)c(Cl)c1)c1cc(Cl)c(Cl)c(Cl)c1` (centres unmarked) [CC20], the “BAW Rating” value is on record as “A (50-100)”. Take `O=C(NCc1ccc(/C=C/C(c2cc(Cl)cc(Cl)c2)C(F)(F)F)cc1C(F)(F)F)C1CC1` (centres unmarked) [CC21]: the “BAW Rating” value was “A (50-100)”. As to `O=C(NCc1ccc(/C=C/C(c2cc(Cl)c(Cl)c(Cl)c2)C(F)(F)F)cc1C(F)(F)F)C1CC1` (centres unmarked) [CC22], the “BAW Rating” value was “A (50-100)”. Consider `O=C(NCc1ccc(/C=C/C(c2cc(Cl)c(Cl)c(Cl)c2)C(F)(F)F)cc1C(F)(F)F)c1cccnc1` (centres unmarked) [CC23], for which the “BAW Rating” value is recorded as “A (50-100)”.

Take `O=C(CC(F)(F)F)NCc1ccc(/C=C/C(c2cc(Cl)c(Cl)c(Cl)c2)C(F)(F)F)cc1C(F)(F)F` (centres unmarked) [CC24]: the “BAW Rating” value is “A (50-100)”.

Take `O=C(CC(F)(F)F)NCc1ccc(/C=C/C(c2cc(Cl)c(Cl)c(Cl)c2)C(F)(F)F)cc1Br` (centres unmarked) [CC25]: the “BAW Rating” value is listed as “A (50-100)”. For `O=C(NCc1ccc(/C=C/C(c2cc(Cl)c(Cl)c(Cl)c2)C(F)(F)F)cc1Br)C1CC1` (centres unmarked) [CC26], the “BAW Rating” value is on record as “A (50-100)”. In the case of `O=C(CC(F)(F)F)NCc1ccc(/C=C/C(c2cc(Cl)c(Cl)c(Cl)c2)C(F)(F)F)cc1F` (centres unmarked) [CC27] it was “A (50-100)”. Next, `O=C(NCc1ccc(/C=C/C(c2cc(Cl)c(Cl)c(Cl)c2)C(F)(F)F)cc1F)C1CC1` (centres unmarked) [CC28]: “A (50-100)”; `O=C(C1CC1)N(Cc1ccccn1)Cc1ccc(/C=C/C(c2cc(Cl)c(Cl)c(Cl)c2)C(F)(F)F)cc1C(F)(F)F` (centres unmarked) [CC29, (E)-N-(Pyridin-2-ylmethyl)-N-(4-(4,4,4-trifluoro-3-(3,4,5-trichlorophenyl)but-1-enyl)-2-(trifluoromethyl)benzyl)cyclopropanecarboxamide]: “A (50-100)”. In the case of `CS(=O)(=O)CCC(=O)NCc1ccc(/C=C/C(c2cc(Cl)c(Cl)c(Cl)c2)C(F)(F)F)cc1Cl` (centres unmarked) [CC30, (E)-N-(2-Chloro-4-(4,4,4-trifluoro-3-(3,4,5-trichlorophenyl)but-1-en-1-yl)benzyl)-3-(methylsulfonyl)propanamide] it was “A (50-100)”; in that of `CCNC(=O)NCc1ccc(/C=C/C(c2cc(Cl)cc(Cl)c2)C(F)(F)F)cc1Cl` (centres unmarked) [CC31, (E)-1-(2-Chloro-4-(3-(3,5-dichlorophenyl)-4,4,4-trifluorobut-1-en-1-yl)benzyl)-3-ethylurea], “B (More than 0-Less than 50)”; in that of `CCNC(=O)NCc1ccc(/C=C/C(c2cc(Cl)c(Cl)c(Cl)c2)C(F)(F)F)cc1C(F)(F)F` (centres unmarked) [CC32], “A (50-100)”. On to `CCNC(=O)NCc1ccc(/C=C/C(c2cc(Cl)c(Cl)c(Cl)c2)C(F)(F)F)cc1Br` (centres unmarked) [CC33], for which the “BAW Rating” value is “A (50-100)”.

Turning to `O=C(NCc1ccc(/C=C/C(c2cc(Cl)c(Cl)c(Cl)c2)C(F)(F)F)cc1Cl)N1CCOCC1` (centres unmarked) [CC34], the “BAW Rating” value is given as “A (50-100)”.

Consider `CN(C)C(=O)NCc1ccc(/C=C/C(c2cc(Cl)c(Cl)c(Cl)c2)C(F)(F)F)cc1Cl` (centres unmarked) [CC36, (E)-3-(2-Chloro-4-(4,4,4-trifluoro-3-(3,4,5-trichlorophenyl)but-1-en-1-yl)benzyl)-1,1-dimethylurea], for which the “BAW Rating” value is “A (50-100)”. In the case of `CCNC(=S)NCc1ccc(/C=C/C(c2cc(Cl)c(Cl)c(Cl)c2)C(F)(F)F)cc1Cl` (centres unmarked) [CC37, (E)-1-(2-Chloro-4-(4,4,4-trifluoro-3-(3,4,5-trichlorophenyl)but-1-en-1-yl)benzyl)-3-ethylthiourea] it was “A (50-100)”. On to `C=CCNC(=S)NCc1ccc(/C=C/C(c2cc(Cl)c(Cl)c(Cl)c2)C(F)(F)F)cc1Cl` (centres unmarked) [CC38], for which the “BAW Rating” value is reported as “A (50-100)”. In the case of `FC(F)(F)C(/C=C/c1ccc(CNc2ccccn2)c(Cl)c1)c1cc(Cl)c(Cl)c(Cl)c1` (centres unmarked) [CC43, (E)-N-(2-Chloro-4-(4,4,4-trifluoro-3-(3,4,5-trichlorophenyl)but-1-en-1-yl)benzyl)pyridin-2-amine] it was “A (50-100)”; in that of `O=C(CC(F)(F)F)NCc1ncc(/C=C/C(c2cc(Cl)c(Cl)c(Cl)c2)C(F)(F)F)cc1Cl` (centres unmarked) [CC44, (E)-N-((3-Chloro-5-(4,4,4-trifluoro-3-(3,4,5-trichlorophenyl)-but-1-en-1-yl)pyridin-2-yl)methyl)-3,3,3-trifluoropropanamide], “A (50-100)”. For `O=C(NCc1ncc(/C=C/C(c2cc(Cl)c(Cl)c(Cl)c2)C(F)(F)F)cc1Cl)C1CC1` (centres unmarked) [CC45], the “BAW Rating” value is “A (50-100)”.

With `O=C(NNc1ccc(/C=C/C(c2cc(Cl)c(Cl)c(Cl)c2)C(F)(F)F)cc1)C1CC1` (centres unmarked) [CC50, (E)-N′-(4-(4,4,4-Trifluoro-3-(3,4,5-trichlorophenyl)but-1-en-1-yl)phenyl)cyclopropanecarbohydrazide], the “BAW Rating” value is reported as “A (50-100)”. On to `O=C(CC(F)(F)F)NNc1ccc(/C=C/C(c2cc(Cl)c(Cl)c(Cl)c2)C(F)(F)F)cc1` (centres unmarked) [CC51], for which the “BAW Rating” value is recorded as “A (50-100)”. As to `O=C(NOc1ccc(/C=C/C(c2cc(Cl)c(Cl)c(Cl)c2)C(F)(F)F)cc1)C1CC1` (centres unmarked) [CC52, (E)-N-(4-(4,4,4-Trifluoro-3-(3,4,5-trichlorophenyl)but-1-en-1-yl)phenoxy)cyclopropanecarboxamide], the “BAW Rating” value is “A (50-100)”. In the case of `O=C(CC(F)(F)F)NCc1ccc(/C=C\C(c2cc(Cl)c(Cl)c(Cl)c2)C(F)(F)F)cc1` (centres unmarked) [CC54, (Z)-3,3,3-Trifluoro-N-(4-(4,4,4-trifluoro-3-(3,4,5-trichlorophenyl)but-1-en-1-yl)benzyl)propanamide] it was “A (50-100)”. In the case of `FC(F)(F)C(/C=C/c1ccc(-n2cncn2)cc1)c1cc(Cl)cc(Cl)c1` (centres unmarked) [DC1, (E)-1-(4-(3-(3,5-Dichlorophenyl)-4,4,4-trifluorobut-1-en-1-yl)phenyl)-1H-1,2,4-triazole] it was “A (50-100)”; in that of `FC(F)(F)C(/C=C/c1ccc(-n2cncn2)cc1)c1ccccc1` (centres unmarked) [DC3], “B (More than 0-Less than 50)”; in that of `FC(F)(F)C(/C=C/c1ccc(-n2cncn2)cc1)c1ccc(Cl)cc1` (centres unmarked) [DC4], “A (50-100)”. For `Fc1ccc(C(/C=C/c2ccc(-n3cncn3)cc2)C(F)(F)F)cc1` (centres unmarked) [DC7], the “BAW Rating” value is “A (50-100)”. Next, `Fc1cc(F)cc(C(/C=C/c2ccc(-n3cncn3)cc2)C(F)(F)F)c1` (centres unmarked) [DC8]: “A (50-100)”. With `Cc1cc(C)cc(C(/C=C/c2ccc(-n3cncn3)cc2)C(F)(F)F)c1` (centres unmarked) [DC11], the “BAW Rating” value is “A (50-100)”.

Regarding `FC(F)(F)C(/C=C/c1ccc(-n2cncn2)cc1)c1ccc(Cl)c(Cl)c1` (centres unmarked) [DC12], the “BAW Rating” value is “A (50-100)”.

For the compound `FC(F)(F)c1cc(C(/C=C/c2ccc(-n3cncn3)cc2)C(F)(F)F)cc(C(F)(F)F)c1` (centres unmarked) [DC16], the “BAW Rating” value is given as “A (50-100)”.

With `COc1c(Cl)cc(C(/C=C/c2ccc(-n3cncn3)cc2)C(F)(F)F)cc1Cl` (centres unmarked) [DC20], the “BAW Rating” value is reported as “A (50-100)”.

Source of the values: patent publication US9212163B2, “Pesticidal compositions and processes related thereto” (Dow AgroSciences LLC, priority 2012, dated 2015).
